Laboratory results published in ChEMBL document CHEMBL1122054, “Lysosomotropic agents. 4. Carbobenzoxyglycylphenylalanyl, a new protease-sensitive masking group for introduction into cells” (J Med Chem, 1982).

Assays:
[1] = organism: Mus musculus; test: Toxicity toward P-815 Mastocytoma cells after 5 hr was determined as percent of [51Cr]- release from labeled cells as a measure of cell death. at a concentration of 0.208 mM. (expt III); assay type: functional
[2] = organism: Mus musculus; test: Toxicity was evaluated for the compound at a concentration of 0.208 mM against […] Mastocytoma.; assay type: functional
[3] = organism: Mus musculus; test: Toxicity toward P-815 Mastocytoma cells after 5 hr was determined as percent of [51Cr]- release from labeled cells as a measure of cell death. at a concentration of 0.282 mM. (expt III); assay type: functional
[4] = organism: Mus musculus; test: Evaluated for the percent inhibition uptake of radiolabeled thymidine as a measure of inhibition of cell division against the SV40-transformed 3T3 cells at 4 hr at the concentration of 3Mx10E4 for expt VI; assay type: functional, NIH3T3
[5] = organism: Mus musculus; test: Toxicity was evaluated for the compound at a concentration of 0.104 mM against […] Mastocytoma.; assay type: functional
[6] = organism: Mus musculus; test: Evaluated for the percent inhibition uptake of radiolabeled thymidine as a measure of inhibition of cell division against the SV40-transformed 3T3 cells at 4 hr at the concentration of 1Mx10E4 for expt VI; assay type: functional
[7] = organism: Mus musculus; test: Evaluated for the percent inhibition uptake of radiolabeled thymidine as a measure of inhibition of cell division against the L1210 cells after 4 hr at the concentration of 1.5x10E4M; assay type: functional
[8] = organism: Mus musculus; test: Evaluated for the percent inhibition uptake of radiolabeled thymidine as a measure of inhibition of cell division against the SV40-transformed 3T3 cells at 4 hr at the concentration of 1Mx10E4 for expt VII; assay type: functional, NIH3T3
[9] = organism: Mus musculus; test: Evaluated for the percent inhibition uptake of radiolabeled thymidine as a measure of inhibition of cell division against the SV40-transformed 3T3 cells at the concentration of 3*10^-4M after 6 hr; assay type: functional, NIH3T3
[10] = organism: Mus musculus; test: Evaluated for the percent inhibition uptake of radiolabeled thymidine as a measure of inhibition of cell division against the SV40-transformed 3T3 cells at 4 hr at the concentration of 10Mx10E4 for expt VII; assay type: functional, NIH3T3
[11] = organism: Mus musculus; test: Evaluated for the percent inhibition uptake of radiolabeled thymidine as a measure of inhibition of cell division against the SV40-transformed 3T3 cells at the concentration of 3*10^-4M after 4 hr; assay type: functional, NIH3T3
[12] = organism: Mus musculus; test: Evaluated for the percent inhibition uptake of radiolabeled thymidine as a measure of inhibition of cell division against the SV40-transformed 3T3 cells at 4 hr at the concentration of 4Mx10E4 for expt VII; assay type: functional, NIH3T3
[13] = organism: Mus musculus; test: Evaluated for the percent inhibition uptake of radiolabeled thymidine as a measure of inhibition of cell division against the L1210 cells after 4 hr at the concentration of 3.0x10E4M; assay type: functional
[14] = organism: Mus musculus; test: Evaluated for the percent inhibition uptake of radiolabeled leucine as a measure of inhibition of protein synthesis i.e., cell death against the SV40-transformed 3T3 cells at 4 hr at the concentration of 1Mx10E4 for expt VII; assay type: functional, NIH3T3
[15] = organism: Mus musculus; test: Evaluated for the percent inhibition uptake of radiolabeled leucine as a measure of inhibition of protein synthesis i.e., cell death against the SV40-transformed 3T3 cells at 4 hr at the concentration of 3Mx10E4 for expt VIII; assay type: functional, NIH3T3
[16] = organism: Mus musculus; test: Evaluated for the percent inhibition uptake of radiolabeled leucine as a measure of inhibition of protein synthesis i.e., cell death against the SV40-transformed 3T3 cells at 4 hr at the concentration of 6Mx10E4 for expt VII; assay type: functional, NIH3T3
[17] = organism: Mus musculus; test: Evaluated for the percent inhibition uptake of radiolabeled thymidine as a measure of inhibition of cell division against the SV40-transformed 3T3 cells at the concentration of 3*10^-4M after 3h; assay type: functional, NIH3T3
[18] = organism: Mus musculus; test: Evaluated for the percent inhibition uptake of radiolabeled leucine as a measure of inhibition of protein synthesis i.e., cell death against the SV40-transformed 3T3 cells at 4 hr at the concentration of 1Mx10E4 for expt VIII; assay type: functional, NIH3T3
[19] = organism: Mus musculus; test: Toxicity toward P-815 Mastocytoma cells after 5 hr was determined as percent of [51Cr]- release from labeled cells as a measure of cell death at a concentration of 0.312 mM (expt IV); assay type: functional
[20] = organism: Mus musculus; test: Evaluated for the percent inhibition uptake of radiolabeled thymidine as a measure of inhibition of cell division against the SV40-transformed 3T3 cells after 4 hr at the concentration of 6x10E4M for experiment X; assay type: functional
[21] = organism: Mus musculus; test: Evaluated for the percent inhibition uptake of radiolabeled thymidine as a measure of inhibition of cell division against the SV40-transformed 3T3 cells after 4 hr at the concentration of 3x10E4M for experiment X; assay type: functional, NIH3T3
[22] = organism: Mus musculus; test: Toxicity toward P-815 Mastocytoma cells after 5 hr was determined as percent of [51Cr]- release from labeled cells as a measure of cell death at a concentration of 0.104 mM (expt IV); assay type: functional
[23] = organism: Mus musculus; test: Evaluated for the percent inhibition uptake of radiolabeled thymidine as a measure of inhibition of cell division against the SV40-transformed 3T3 cells at 4 hr at the concentration of 6Mx10E4 for expt VI; assay type: functional, NIH3T3
[24] = organism: Mus musculus; test: Evaluated for the percent inhibition uptake of radiolabeled thymidine as a measure of inhibition of cell division against the SV40-transformed 3T3 cells at 4 hr at the concentration of 3Mx10E4 for expt VII; assay type: functional, NIH3T3
[25] = organism: Mus musculus; test: Toxicity toward P-815 Mastocytoma cells after 5 hr was determined as percent of [51Cr]- release from labeled cells as a measure of cell death at a concentration of 0.208 mM (expt IV); assay type: functional
[26] = organism: Mus musculus; test: Evaluated for the percent inhibition uptake of radiolabeled thymidine as a measure of inhibition of cell division against the SV40-transformed 3T3 cells after 4 hr at the concentration of 1x10E4M for experiment X; assay type: functional
[27] = organism: Mus musculus; test: Evaluated for the percent inhibition uptake of radiolabeled leucine as a measure of inhibition of protein synthesis i.e., cell death against the SV40-transformed 3T3 cells at 4 hr at the concentration of 6Mx10E4 for expt VIII; assay type: functional, NIH3T3
[28] = organism: Mus musculus; test: Evaluated for the percent inhibition uptake of radiolabeled leucine as a measure of inhibition of protein synthesis i.e., cell death against the SV40-transformed 3T3 cells at 4 hr at the concentration of 3Mx10E4 for expt VII; assay type: functional, NIH3T3
[29] = organism: Mus musculus; test: Toxicity was evaluated for the compound at a concentration of 0.312 mM against […] Mastocytoma.; assay type: functional
[30] = organism: Mus musculus; test: Evaluated for the percent inhibition uptake of radiolabeled thymidine as a measure of inhibition of cell division against the SV40-transformed 3T3 cells at the concentration of 3*10^-4M after 8 hr; assay type: functional, NIH3T3
[31] = organism: Mus musculus; test: Evaluated for the percent inhibition uptake of radiolabeled thymidine as a measure of inhibition of cell division against the SV40-transformed 3T3 cells after 4 hr at the concentration of 3x10E4M for experiment XI; assay type: functional, NIH3T3
[32] = organism: Mus musculus; test: Evaluated for the percent inhibition uptake of radiolabeled thymidine as a measure of inhibition of cell division against the SV40-transformed 3T3 cells at the concentration of 3*10^-4M after 24 hr; assay type: functional, NIH3T3
[33] = organism: Mus musculus; test: Evaluated for the percent inhibition uptake of radiolabeled thymidine as a measure of inhibition of cell division against the SV40-transformed 3T3 cells at 4 hr at the concentration of 6Mx10E4 for expt VII; assay type: functional, NIH3T3
[34] = organism: Mus musculus; test: Evaluated for the percent inhibition uptake of radiolabeled thymidine as a measure of inhibition of cell division against the L1210 cells after 4 hr at the concentration of 0.5x10E4M; assay type: functional
[35] = organism: Mus musculus; test: Evaluated for the percent inhibition uptake of radiolabeled thymidine as a measure of inhibition of cell division against the SV40-transformed 3T3 cells after 4 hr at the concentration of 6x10E4M for experiment XI; assay type: functional, NIH3T3
[36] = organism: Mus musculus; test: Evaluated for the percent inhibition uptake of radiolabeled thymidine as a measure of inhibition of cell division against the SV40-transformed 3T3 cells after 4 hr at the concentration of 1x10E4M for experiment XI; assay type: functional, NIH3T3
[37] = organism: Mus musculus; test: Toxicity toward P-815 Mastocytoma cells after 5 hr was determined as percent of [51Cr]- release from labeled cells as a measure of cell death at a concentration of 0.312 mM (expt V); assay type: functional
[38] = organism: Mus musculus; test: Toxicity toward P-815 Mastocytoma cells after 5 hr was determined as percent of [51Cr]- release from labeled cells as a measure of cell death at a concentration of 0.208 mM (expt III); assay type: functional
[39] = organism: Mus musculus; test: Cytotoxicity was determined against mouse peritoneal macrophages (MPM) and the percent of LDH released after 24 hr was determined as a measure of cell death at a concentration of 0.375 mM (expt I); assay type: functional
[40] = organism: Mus musculus; test: Toxicity toward P-815 Mastocytoma cells after 5 hr was determined as percent of [51Cr]- release from labeled cells as a measure of cell death. at a concentration of 0.750 mM. (expt III); assay type: functional
[41] = organism: Mus musculus; test: Appearance of mouse peritoneal macrophages after 3h of treatment with compound at a concentration of 0.375 mM; OK; assay type: functional, organism-based
[42] = organism: Mus musculus; test: Cytotoxicity was determined against mouse peritoneal macrophages (MPM) and the percent of LDH released after 24 hr was determined as a measure of cell death at a concentration of 0.375 mM (expt II); assay type: functional

O=C(CNC(=O)OCc1ccccc1)N[C@@H](Cc1ccccc1)C(=O)N(CCCl)CCCl
Cr release [1]: 16% | Toxicity [2]: 100 µg/mL

NC(=O)[C@H](Cc1ccccc1)NC(=O)CNC(=O)OCc1ccccc1
Cr release [3]: 17%

O=C(CNC(=O)OCc1ccccc1)N[C@H](Cc1ccccc1)C(=O)N(CCCl)CCCl
Inhibition uptake [4]: 60% | Toxicity [5]: 50 µg/mL | Inhibition uptake [6]: 7% | Inhibition uptake [7]: 57% | Inhibition uptake [8]: 12% | Inhibition uptake [9]: 83% | Inhibition uptake [10]: 92% | Inhibition uptake [11]: 80% | Inhibition uptake [12]: 61% | Inhibition uptake [13]: 76% | Toxicity [2]: 100 µg/mL | Inhibition uptake [14]: -1% | Inhibition uptake [15]: 33% | Inhibition uptake [16]: 36% | Inhibition uptake [17]: 76% | Inhibition uptake [18]: 5% | Cr release [19]: 34% | Inhibition uptake [20]: 90% | Inhibition uptake [21]: 46% | Cr release [22]: 22% | Inhibition uptake [23]: 93% | Inhibition uptake [24]: 46% | Cr release [25]: 27% | Inhibition uptake [26]: 14% | Inhibition uptake [27]: 83% | Inhibition uptake [28]: 10% | Toxicity [29]: 150 µg/mL | Inhibition uptake [30]: 86% | Inhibition uptake [31]: 36% | Inhibition uptake [32]: 88% | Inhibition uptake [33]: 70% | Inhibition uptake [34]: 28% | Inhibition uptake [35]: 75% | Inhibition uptake [36]: 36% | Cr release [37]: 19% | Cr release [38]: 29%

CCCCCCCCCCCCNCC(F)(F)F
LDH release [39]: 52% | Cr release [40]: 15% | Activity [41]: OK | LDH release [42]: 64%
